Test results: patent US10292997B2, “Compositions and methods for stimulating wound healing” (priority 2011, dated 2019)

Test system: full thickness skin wounds
Experiment: Wound closure rate of excised full thickness skin wounds treated with gel formulations
Format: in vivo, Hartley-derived albino guinea pigs

Insulin: Insulin alone as control; non-steroidal anabolic hormone, vehicle not stated in the table
Peak Closure Day (day of maximum closure rate): 3.0 days
Closure % (day) 50% (day on which 50% wound closure is reached, gel about 1 cc/cm^2, dressing changed every 48 hours): 5.0 days
% Closure at Peak Closure Day (wound closure reached on the peak closure day): 30%
